Results: ChEMBL document CHEMBL4828725 (Eur J Med Chem, 2021)

Tests used:
[1] = Inhibition of porcine kidney alpha-trehalase using p-nitrophenyl glycoside as substrate assessed as release of p-nitrophenol measured by spectrometric assay; design: species or system Sus scrofa
Penicillium decumbens = experiment: Inhibition of Penicillium decumbens alpha-L-rhamnosidase using p-nitrophenyl glycoside as substrate assessed as release of p-nitrophenol at 1000 uM measured by spectrometric assay relative to control
[2] = biological target: Beta-glucuronidase (Escherichia coli (strain K12)) (UniProt P05804); experiment: Inhibition of Escherichia coli beta-glucuronidase using p-nitrophenyl glycoside as substrate assessed as release of p-nitrophenol at 1000 uM measured by spectrometric assay relative to control
Beta-glucuronidase = Beta-glucuronidase (Escherichia coli (strain K12), UniProt P05804); experiment: Inhibition of Escherichia coli beta-glucuronidase using p-nitrophenyl glycoside as substrate assessed as release of p-nitrophenol measured by spectrometric assay
Helix pomatia = experiment: Inhibition of snail beta-mannosidase using p-nitrophenyl glycoside as substrate assessed as release of p-nitrophenol at 1000 uM measured by spectrometric assay relative to control
[3] = Inhibition of Aspergillus niger amyloglucosidase using p-nitrophenyl glycoside as substrate assessed as release of p-nitrophenol measured by spectrometric assay
[4] = biological target: T1, Sucrase-isomaltase, intestinal (Rattus norvegicus, UniProt P23739); experiment: Inhibition of rat intestinal isomaltase using p-nitrophenyl glycoside as substrate assessed as release of p-nitrophenol measured by spectrometric assay
Bos taurus [5] = species: Bos taurus; experiment: Inhibition of bovine liver beta-glucosidase using p-nitrophenyl glycoside as substrate assessed as release of p-nitrophenol at 1000 uM measured by spectrometric assay relative to control; assay type: tissue-based
Alpha-galactosidase = Alpha-galactosidase (Coffea arabica, UniProt Q42656); experiment: Inhibition of coffee beans alpha-galactosidase using p-nitrophenyl glycoside as substrate assessed as release of p-nitrophenol measured by spectrometric assay
[6] = Inhibition of bovine liver beta-glucosidase using p-nitrophenyl glycoside as substrate assessed as release of p-nitrophenol measured by spectrometric assay; design: species or system Bos taurus
Aspergillus niger = experiment: Inhibition of Aspergillus niger amyloglucosidase using p-nitrophenyl glycoside as substrate assessed as release of p-nitrophenol at 1000 uM measured by spectrometric assay relative to control
[7] = Inhibition of almond beta-glucosidase using p-nitrophenyl glycoside as substrate assessed as release of p-nitrophenol measured by spectrometric assay; design: species or system Prunus dulcis
[8] = Inhibition of rice alpha-glucosidase using p-nitrophenyl glycoside as substrate assessed as release of p-nitrophenol measured by spectrometric assay; design: species or system Oryza sativa; details: read-out: IC50
[9] = biological target: T2, Tissue alpha-L-fucosidase (Bos taurus, UniProt Q2KIM0); experiment: Inhibition of bovine kidney alpha-L-fucosidase using p-nitrophenyl glycoside as substrate assessed as release of p-nitrophenol measured by spectrometric assay
T2 sequence (Q2KIM0 whole entry): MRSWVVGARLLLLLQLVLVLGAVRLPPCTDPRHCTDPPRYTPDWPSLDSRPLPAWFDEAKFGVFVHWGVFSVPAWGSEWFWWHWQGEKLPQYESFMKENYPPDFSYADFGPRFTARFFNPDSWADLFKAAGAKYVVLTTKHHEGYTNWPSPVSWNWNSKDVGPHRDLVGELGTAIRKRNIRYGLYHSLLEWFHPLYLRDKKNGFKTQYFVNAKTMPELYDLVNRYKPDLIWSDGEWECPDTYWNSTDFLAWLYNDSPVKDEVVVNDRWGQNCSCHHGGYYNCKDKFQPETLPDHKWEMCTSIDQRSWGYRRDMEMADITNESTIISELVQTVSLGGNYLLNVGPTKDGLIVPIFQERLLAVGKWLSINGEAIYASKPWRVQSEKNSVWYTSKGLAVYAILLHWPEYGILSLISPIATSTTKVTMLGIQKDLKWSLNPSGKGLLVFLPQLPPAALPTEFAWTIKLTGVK

[10] = Inhibition of bovine liver beta-galactosidase using p-nitrophenyl glycoside as substrate assessed as release of p-nitrophenol measured by spectrometric assay; assay type: tissue-based, Bos taurus
Bos taurus [11] = species: Bos taurus; experiment: Inhibition of bovine liver beta-galactosidase using p-nitrophenyl glycoside as substrate assessed as release of p-nitrophenol at 1000 uM measured by spectrometric assay relative to control
[12] = Inhibition of jack bean alpha-mannosidase using p-nitrophenyl glycoside as substrate assessed as release of p-nitrophenol measured by spectrometric assay; design: species or system Canavalia ensiformis
[13] = Inhibition of snail beta-mannosidase using p-nitrophenyl glycoside as substrate assessed as release of p-nitrophenol measured by spectrometric assay; design: species or system Helix pomatia
Prunus dulcis = experiment: Inhibition of almond beta-glucosidase using p-nitrophenyl glycoside as substrate assessed as release of p-nitrophenol at 1000 uM measured by spectrometric assay relative to control
[14] = biological target: T3, Tissue alpha-L-fucosidase (Bos taurus) (UniProt Q2KIM0); experiment: Inhibition of bovine kidney alpha-L-fucosidase using p-nitrophenyl glycoside as substrate assessed as release of p-nitrophenol at 1000 uM measured by spectrometric assay relative to control; assay type: tissue-based
T3 sequence (whole entry): T2 sequence (Q2KIM0 whole entry)

[15] = biological target: T1, Sucrase-isomaltase, intestinal; experiment: Inhibition of rat intestinal sucrase using p-nitrophenyl glycoside as substrate assessed as release of p-nitrophenol measured by spectrometric assay; details: read-out: IC50
[16] = biological target: T4, Alpha-mannosidase (Canavalia ensiformis) (UniProt C0HJB3); experiment: Inhibition of jack bean alpha-mannosidase using p-nitrophenyl glycoside as substrate assessed as release of p-nitrophenol at 1000 uM measured by spectrometric assay relative to control
T4 sequence (whole entry): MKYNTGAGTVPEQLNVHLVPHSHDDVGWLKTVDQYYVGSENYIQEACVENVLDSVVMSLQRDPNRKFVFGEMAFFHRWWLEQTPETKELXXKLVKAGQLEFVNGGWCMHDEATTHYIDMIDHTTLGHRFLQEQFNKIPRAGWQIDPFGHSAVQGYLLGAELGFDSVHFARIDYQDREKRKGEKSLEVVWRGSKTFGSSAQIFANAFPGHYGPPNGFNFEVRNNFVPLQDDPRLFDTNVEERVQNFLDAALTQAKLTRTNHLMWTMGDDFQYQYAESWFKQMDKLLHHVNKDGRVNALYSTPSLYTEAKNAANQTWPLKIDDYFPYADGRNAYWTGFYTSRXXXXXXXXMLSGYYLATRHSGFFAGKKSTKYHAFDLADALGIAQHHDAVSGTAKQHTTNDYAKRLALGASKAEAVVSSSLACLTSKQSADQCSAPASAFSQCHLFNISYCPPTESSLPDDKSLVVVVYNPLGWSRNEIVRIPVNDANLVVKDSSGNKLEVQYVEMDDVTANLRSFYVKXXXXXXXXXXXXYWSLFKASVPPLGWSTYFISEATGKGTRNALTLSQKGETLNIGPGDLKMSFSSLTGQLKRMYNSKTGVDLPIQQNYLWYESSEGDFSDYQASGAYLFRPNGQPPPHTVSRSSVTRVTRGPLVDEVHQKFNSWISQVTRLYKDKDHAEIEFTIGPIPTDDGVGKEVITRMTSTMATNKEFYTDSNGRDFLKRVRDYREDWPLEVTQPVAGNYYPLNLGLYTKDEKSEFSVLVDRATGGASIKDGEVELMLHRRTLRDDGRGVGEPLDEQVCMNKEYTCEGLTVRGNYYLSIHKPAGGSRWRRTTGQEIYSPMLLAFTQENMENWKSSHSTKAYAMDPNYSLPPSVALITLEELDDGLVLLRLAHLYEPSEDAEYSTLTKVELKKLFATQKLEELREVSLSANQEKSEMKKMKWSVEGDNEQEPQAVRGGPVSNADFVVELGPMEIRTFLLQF

[17] = Inhibition of Penicillium decumbens alpha-L-rhamnosidase using p-nitrophenyl glycoside as substrate assessed as release of p-nitrophenol measured by spectrometric assay
Sus scrofa = species: Sus scrofa; experiment: Inhibition of porcine kidney alpha-trehalase using p-nitrophenyl glycoside as substrate assessed as release of p-nitrophenol at 1000 uM measured by spectrometric assay relative to control
[18] = Inhibition of rat intestinal maltase using maltose as substrate assessed as release of D-glucose measured by spectrometric assay
[19] = biological target: Alpha-galactosidase (Coffea arabica) (UniProt Q42656); experiment: Inhibition of coffee beans alpha-galactosidase using p-nitrophenyl glycoside as substrate assessed as release of p-nitrophenol at 1000 uM measured by spectrometric assay relative to control
Chain of Alpha-galactosidase (Coffea arabica) (Q42656 16-378 limits assumed): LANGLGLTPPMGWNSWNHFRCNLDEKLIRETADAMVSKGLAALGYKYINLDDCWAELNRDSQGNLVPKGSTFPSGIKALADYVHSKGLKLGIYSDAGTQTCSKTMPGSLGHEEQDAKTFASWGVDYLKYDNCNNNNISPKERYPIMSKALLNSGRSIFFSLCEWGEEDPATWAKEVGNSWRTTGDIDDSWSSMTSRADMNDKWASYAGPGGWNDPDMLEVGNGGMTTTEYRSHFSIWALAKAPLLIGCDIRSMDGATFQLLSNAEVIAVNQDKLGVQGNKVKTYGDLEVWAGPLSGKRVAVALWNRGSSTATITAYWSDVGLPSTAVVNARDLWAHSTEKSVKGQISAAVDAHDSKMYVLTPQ

T1 sequence (P23739 1-1013 limits assumed): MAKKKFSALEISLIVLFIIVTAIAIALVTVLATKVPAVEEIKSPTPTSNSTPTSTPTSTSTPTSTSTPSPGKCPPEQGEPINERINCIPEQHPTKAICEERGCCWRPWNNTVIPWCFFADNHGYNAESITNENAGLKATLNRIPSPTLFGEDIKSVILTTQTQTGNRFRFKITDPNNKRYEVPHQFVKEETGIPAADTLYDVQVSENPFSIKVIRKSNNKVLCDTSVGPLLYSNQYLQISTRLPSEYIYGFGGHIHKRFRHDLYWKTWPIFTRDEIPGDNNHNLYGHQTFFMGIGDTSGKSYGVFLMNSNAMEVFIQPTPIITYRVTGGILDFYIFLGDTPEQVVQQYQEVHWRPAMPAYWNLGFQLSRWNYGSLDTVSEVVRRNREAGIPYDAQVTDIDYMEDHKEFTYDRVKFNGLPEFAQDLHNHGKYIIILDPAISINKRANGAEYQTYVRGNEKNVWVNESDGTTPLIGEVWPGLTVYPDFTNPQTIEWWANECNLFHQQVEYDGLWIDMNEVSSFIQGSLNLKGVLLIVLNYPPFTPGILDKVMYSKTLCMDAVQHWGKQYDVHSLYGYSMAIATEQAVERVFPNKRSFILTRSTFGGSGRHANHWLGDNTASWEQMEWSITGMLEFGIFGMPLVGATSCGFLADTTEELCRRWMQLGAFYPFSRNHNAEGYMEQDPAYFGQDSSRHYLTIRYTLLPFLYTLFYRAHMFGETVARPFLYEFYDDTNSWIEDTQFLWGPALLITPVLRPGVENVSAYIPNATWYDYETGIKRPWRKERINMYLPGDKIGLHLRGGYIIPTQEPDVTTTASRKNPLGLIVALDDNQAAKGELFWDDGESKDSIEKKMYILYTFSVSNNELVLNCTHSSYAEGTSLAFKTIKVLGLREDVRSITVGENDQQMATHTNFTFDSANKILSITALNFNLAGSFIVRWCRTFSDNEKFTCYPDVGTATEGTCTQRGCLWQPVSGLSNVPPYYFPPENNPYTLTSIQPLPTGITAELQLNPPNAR
T1 sequence (P23739 1014-1841 limits assumed): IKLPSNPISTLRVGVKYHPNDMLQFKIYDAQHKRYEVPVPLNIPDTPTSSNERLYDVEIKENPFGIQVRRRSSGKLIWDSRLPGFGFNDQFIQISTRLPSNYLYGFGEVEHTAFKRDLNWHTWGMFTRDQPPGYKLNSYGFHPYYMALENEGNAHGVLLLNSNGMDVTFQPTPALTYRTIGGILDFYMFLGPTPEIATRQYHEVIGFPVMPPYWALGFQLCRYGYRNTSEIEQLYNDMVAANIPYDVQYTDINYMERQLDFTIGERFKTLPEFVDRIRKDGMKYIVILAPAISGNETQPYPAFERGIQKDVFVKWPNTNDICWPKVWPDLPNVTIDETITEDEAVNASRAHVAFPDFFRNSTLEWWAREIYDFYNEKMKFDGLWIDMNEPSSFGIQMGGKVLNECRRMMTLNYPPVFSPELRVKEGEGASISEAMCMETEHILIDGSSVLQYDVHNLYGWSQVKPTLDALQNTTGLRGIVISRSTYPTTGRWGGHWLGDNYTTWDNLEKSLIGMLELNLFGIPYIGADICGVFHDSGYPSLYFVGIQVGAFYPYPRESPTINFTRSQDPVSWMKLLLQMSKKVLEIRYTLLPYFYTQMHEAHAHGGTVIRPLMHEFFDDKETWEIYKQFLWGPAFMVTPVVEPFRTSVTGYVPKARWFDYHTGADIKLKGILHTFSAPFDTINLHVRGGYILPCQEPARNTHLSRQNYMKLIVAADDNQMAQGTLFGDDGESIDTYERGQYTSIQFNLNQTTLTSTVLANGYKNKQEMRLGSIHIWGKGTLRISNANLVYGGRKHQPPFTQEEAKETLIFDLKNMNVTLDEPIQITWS
Chain of Beta-glucuronidase (P05804 whole entry): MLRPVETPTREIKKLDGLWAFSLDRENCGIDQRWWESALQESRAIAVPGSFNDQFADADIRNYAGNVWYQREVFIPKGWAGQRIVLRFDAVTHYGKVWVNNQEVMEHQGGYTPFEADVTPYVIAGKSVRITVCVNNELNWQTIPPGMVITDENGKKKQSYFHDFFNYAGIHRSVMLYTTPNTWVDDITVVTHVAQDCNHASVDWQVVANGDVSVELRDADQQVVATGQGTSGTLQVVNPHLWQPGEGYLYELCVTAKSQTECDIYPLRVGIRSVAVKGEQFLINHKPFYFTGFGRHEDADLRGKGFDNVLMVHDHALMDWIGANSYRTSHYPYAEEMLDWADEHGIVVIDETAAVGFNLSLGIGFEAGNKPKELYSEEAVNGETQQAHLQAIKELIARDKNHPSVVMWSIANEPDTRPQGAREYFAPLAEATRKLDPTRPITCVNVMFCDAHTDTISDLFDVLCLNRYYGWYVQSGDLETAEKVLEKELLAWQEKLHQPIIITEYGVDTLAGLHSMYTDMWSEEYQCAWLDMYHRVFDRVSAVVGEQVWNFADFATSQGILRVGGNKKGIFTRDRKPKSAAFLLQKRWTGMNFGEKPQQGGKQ
Chain of Beta-glucuronidase (Escherichia coli (strain K12)) (P05804 whole entry, looked up): as the sequence (P05804 whole entry) above
Chain of Alpha-galactosidase (Q42656 whole entry): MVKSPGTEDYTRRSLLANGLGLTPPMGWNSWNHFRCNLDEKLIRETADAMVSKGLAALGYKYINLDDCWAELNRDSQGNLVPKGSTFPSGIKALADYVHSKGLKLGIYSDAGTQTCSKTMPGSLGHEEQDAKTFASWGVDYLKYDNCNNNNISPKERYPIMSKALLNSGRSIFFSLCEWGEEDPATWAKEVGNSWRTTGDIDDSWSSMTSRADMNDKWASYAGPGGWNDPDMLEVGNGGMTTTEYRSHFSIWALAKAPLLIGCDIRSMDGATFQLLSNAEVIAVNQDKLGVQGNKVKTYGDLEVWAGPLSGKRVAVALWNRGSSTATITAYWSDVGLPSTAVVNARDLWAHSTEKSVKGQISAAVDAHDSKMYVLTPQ

SMILES | IC50 [1] | inhibition (Penicillium decumbens) [%] | inhibition [2] [%] | IC50 (Beta-glucuronidase) | inhibition (Helix pomatia) [%] | IC50 [3] | IC50 ([4]; read-out: IC50) [nM] | inhibition (Aspergillus niger) [%] | IC50 [7] | IC50 [8] [nM] | IC50 [9] | IC50 [12] | IC50 [13] | inhibition (Prunus dulcis) [%] | inhibition [14] [%] | IC50 [15] [nM] | inhibition [16] [%] | IC50 [17] | inhibition (Sus scrofa) [%] | IC50 [18] [nM] | other results
CCCCC[C@]1(CO)NC[C@H](O)[C@@H](O)[C@@H]1O.Cl | Not Active | 0 | 10.8 | Not Active | 4 | Not Active | 700 | 0.83 | Not Active | 68 | Not Active | Not Active | Not Active | 18.8 | 12.4 | 230 | 5.5 | Not Active | 10.6 | 23 | inhibition (Bos taurus [5]): 8%; IC50 (Alpha-galactosidase; read-out: IC50): 83000 nM; IC50 [6]: Not Active; IC50 [10]: Not Active; inhibition (Bos taurus [11]): 16.1%
CCCCCCCCC[C@@]1(CO)NC[C@H](O)[C@@H](O)[C@@H]1O.Cl | Not Active | 3.5 | 38.1 | Not Active | 0.6 | Not Active | 122000 | 2.7 | Not Active | 3300 | Not Active | Not Active | Not Active | 32.9 | 1.5 | 42000 | 0 | Not Active | 0 | 9500 | IC50 (Alpha-galactosidase): Not Active; IC50 ([6]; read-out: IC50): 213000 nM; IC50 ([10]; read-out: IC50): 29000 nM; inhibition [19]: 15.3%
CC[C@]1(CO)NC[C@H](O)[C@@H](O)[C@@H]1O.Cl | – | 0 | 3.6 | Not Active | 1.1 | Not Active | 1200 | 0 | Not Active | 97 | Not Active | Not Active | Not Active | 5.6 | 2.1 | 100 | 1.6 | Not Active | – | 110 | IC50 ([1]; read-out: IC50): 94000 nM; inhibition (Bos taurus [5]): 15.3%; IC50 (Alpha-galactosidase): Not Active; IC50 [6]: Not Active; IC50 [10]: Not Active; inhibition (Bos taurus [11]): 18.4%; inhibition [19]: 30.1%
CCCCCC[C@]1(CO)NC[C@H](O)[C@@H](O)[C@@H]1O.Cl | Not Active | 0.6 | 21.1 | Not Active | 0 | Not Active | 550 | 5.4 | Not Active | 37 | Not Active | Not Active | Not Active | 11.3 | 4.3 | 140 | 5.5 | Not Active | 11.7 | 34 | inhibition (Bos taurus [5]): 10.8%; IC50 (Alpha-galactosidase; read-out: IC50): 76000 nM; IC50 [6]: Not Active; IC50 [10]: Not Active; inhibition (Bos taurus [11]): 15.5%
CCCCCCCC[C@]1(CO)NC[C@H](O)[C@@H](O)[C@@H]1O.Cl | Not Active | 5.7 | 12 | Not Active | 0.5 | Not Active | 340 | 5.9 | Not Active | 29 | Not Active | Not Active | Not Active | 15.7 | 6.6 | 120 | 4.6 | Not Active | 23 | 19 | inhibition (Bos taurus [5]): 14.3%; IC50 (Alpha-galactosidase; read-out: IC50): 98000 nM; IC50 [6]: Not Active; IC50 [10]: Not Active; inhibition (Bos taurus [11]): 35.2%
CCCC[C@@]1(CO)NC[C@H](O)[C@@H](O)[C@@H]1O.Cl | Not Active | 22.8 | – | Not Active | 3 | Not Active | – | 3.8 | Not Active | 85000 | Not Active | Not Active | Not Active | 6.2 | 16 | 242000 | 4.4 | Not Active | 0 | 110000 | IC50 [4]: Not Active; IC50 (Alpha-galactosidase): Not Active; IC50 ([6]; read-out: IC50): 149000 nM; IC50 ([10]; read-out: IC50): 52000 nM; inhibition [19]: 12.5%
